Biological target: T1, TomLOXF (Solanum lycopersicum, UniProt C0KKU8)
T1 construct: gene loxF; predicted chloroplast transit peptide (54 residues, ChloroP) excluded; N-terminal His tag of pET28-a kept; E. coli BL21; about 100 kDa; full precursor 903 residues; partially purified on nickel
T1 sequence (C0KKU8 55-902): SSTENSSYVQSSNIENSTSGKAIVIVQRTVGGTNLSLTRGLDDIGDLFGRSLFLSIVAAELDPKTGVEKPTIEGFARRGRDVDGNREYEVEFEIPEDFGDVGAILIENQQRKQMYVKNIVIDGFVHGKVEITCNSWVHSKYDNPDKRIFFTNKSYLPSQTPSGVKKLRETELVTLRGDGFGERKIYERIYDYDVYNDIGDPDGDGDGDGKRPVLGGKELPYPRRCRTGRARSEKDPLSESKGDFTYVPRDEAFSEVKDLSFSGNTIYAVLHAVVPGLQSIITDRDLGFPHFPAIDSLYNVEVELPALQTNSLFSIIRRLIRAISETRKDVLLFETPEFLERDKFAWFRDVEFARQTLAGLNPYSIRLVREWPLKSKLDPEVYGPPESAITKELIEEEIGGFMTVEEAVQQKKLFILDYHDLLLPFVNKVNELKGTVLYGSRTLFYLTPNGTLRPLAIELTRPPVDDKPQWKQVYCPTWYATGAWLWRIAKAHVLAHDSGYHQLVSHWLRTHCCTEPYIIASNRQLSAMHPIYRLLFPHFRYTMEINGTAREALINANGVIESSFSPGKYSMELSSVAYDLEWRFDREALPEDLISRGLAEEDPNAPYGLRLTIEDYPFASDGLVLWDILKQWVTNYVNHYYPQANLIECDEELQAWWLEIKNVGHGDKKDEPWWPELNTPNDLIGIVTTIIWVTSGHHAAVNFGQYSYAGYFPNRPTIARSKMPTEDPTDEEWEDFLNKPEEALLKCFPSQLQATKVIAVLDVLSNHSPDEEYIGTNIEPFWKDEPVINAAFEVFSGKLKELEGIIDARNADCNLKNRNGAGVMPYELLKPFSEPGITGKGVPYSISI
Assay: hydroperoxide formation at […] nm; products by HPLC
Type: biochemical
Settings: pH 6.0, room temperature, oxygenated phosphate buffer, partially purified enzyme

## CCCCC/C=C\C/C=C\CCCCCCCC(=O)O [C18:2, linoleic acid]
Product 13-HPOD, weaker substrate
  hydroperoxide formation at 234 nm; products by HPLC: Partially-purified TOMLOXF showed a higher activity on linolenic acid than on linoleic acid

## CC/C=C\C/C=C\C/C=C\CCCCCCCC(=O)O [C18:3, linolenic acid]
Product 13-HPOT, preferred substrate
  hydroperoxide formation at 234 nm; products by HPLC: Partially-purified TOMLOXF showed a higher activity on linolenic acid than on linoleic acid
